Test results published in US5707559A, “Chemiluminescent 1,2-dioxetane compounds” (priority 1987, dated 1998).

Tests used:
[1] = Triggering the chemiluminescence of hydroxy-substituted dioxetanes with base; conditions: for base-induced chemiluminescence: base-induced decomposition, room temperature (2b: potassium t-butoxide in o-xylene, 25° C.)
Protocol: (§1) A solution of the dioxetane in a suitable solvent (e.g. o-xylene) was placed in the reaction vial as described above. The vial was placed in the sample holder which was maintained at a temperature such that thermal decomposition of the dioxetane was negligible. Instrument parameters were selected as above and data collection started. A solution of the releasing agent (e.g. base or fluoride) preferably in the reaction solvent was injected by syringe into the rapidly stirred dioxetane solution. The volume of releasing agent added was generally less than 5% of the total volume so that temperature fluctuation of the sample during the time course of the decay was minimal. The pseudo-first order decay was monitored for at least three half-lives.
1. Triggering the Chemiluminescence of Hydroxy-Substituted Dioxetanes with Base: Potassium tert-butoxide induced decomposition of 2b. […].

[2] = Thermal decomposition of dioxetanes monitored by decay of chemiluminescence (activation parameters in xylene); assay type: physicochemical
Protocol: Rates of dioxetane decomposition were monitored by the decay of chemiluminescence of aerated solutions. A cylindrical Pyrex vial equipped with magnet stir bar was filled with 3-4 mL of the reaction solvent, sealed with a Teflon-lined screw cap and placed in the thermostatted sample block of the chemiluminescence-measuring apparatus (Black Box). Temperature control was provided by an external circulating water bath. Appropriate values for the instrument gain and optical slit size were selected. […]. The vial was sealed with a Teflon-lined screw cap to prevent evaporation when high temperatures were used. Measurement of the signal was begun by opening the shutter. The chemiluminescent decay was generally recorded for at least three half-lives. Calculation of the first-order rate constant, k, from the In(Intensity) vs. time data was performed by a computer program utilizing a standard least-squares treatment. The correlation coefficient, r, was typically at least 0.999 and varied less than 5% between replicate samples. The observed rate was not measurably concentration dependent.
Activation parameters for decomposition of the dioxetanes were calculated from plots of In k vs. 1/T (Arrhenius eq.) or In k/t vs. 1/T (Eyring eq.) by a standard least-squares linear regression analysis.
Activation Energies for Decomposition of Dioxetanes 2 in Xylene.

[3] = for fluoride induced chemiluminescence in polar aprotic solvents: polar aprotic solvents such as acetonitrile
Protocol: as §1
2. Triggering the Chemiluminescence of Silyloxy-Substituted Dioxetanes with Fluorde Ion: Fluoride ion induced decomposition of 2c. […]. […]. A spectrum of the chemiluminescence obtained from the fluoride triggering of 2c in 1:1 aqueous/2-methoxyethanol is shown in FIG. 1 with the solid line. The fluorescence of the cleavage product (methyl 6-hydroxy-2-naphthoate) from the dioxetane is also shown with the dashed line for comparison.

[4] = Triggering properties of further prepared dioxetanes (general statement)
[5] = system: Aryl esterase (carboxylic ester hydrolase) from porcine liver; test: Enzymatic triggering of chemiluminescence with aryl esterase; assay type: biochemical; conditions: for effect of added competing esterase substrate on light intensity: […] solution added at maximum emission of 2e, pH 7.6 phosphate buffer, 37° C.
Protocol: (§2) A secondary stock solution of the acetate-protected dioxetane 2e was made by evaporating an aliquot of the methylene chloride stock equivalent to 10 micromoles of dioxetane and dissolving in 5.0 mL of 2-methoxyethanol to give a final concentration of 0.002M. […] Buffer solutions prepared in distilled water were 0.05M phosphate pH 7.6 and 8.0, 0.02M Tris (tris-hydroxymethylaminomethane maleate) pH 7.6, and pH 9.0 phosphate/borate buffer. Aryl esterase (also called carboxylic ester hydrolase (P-5221)) from porcine liver was purchased from Sigma Chemical Co. as a suspension of 11 mg of protein per mL in 3.2M (NH4)2 SO4 solution pH 8.0. Each mg of protein is equivalent to 260 Units, where 1 Unit is defined as the amount which will hydrolyze 1 micromole of ethyl butyrate in 1 minute at pH 8.0, 25° C. […] Injection of 1 μL of (0.26 units) of aryl esterase to the stirred solution caused a chemiluminescent signal to appear. The intensity reached a maximum at about 3 minutes and decayed over a 30 minute period.
3.) When distilled water was substituted for the Tris buffer, no chemiluminescence signal was observed, but on adding Tris buffer to this solution light emission similar to that above was produced. […] Addition of untreated enzyme preparation to this solution again produced light. […] The emission could be totally extinguished by addition of sufficient SDS. The decrease in light emission is not due to photophysical quenching of the excited state since thermal decomposition in the same solvent system at elevated temperatures results in readily detectable chemiluminescence.
This type of behavior explains the effect of the addition of the known esterase substrates α-naphthyl acetate and β-naphthyl acetate. […] A solution of 25 μL of the dioxetane stock (0.002M) in 3 mL of pH 7.6 phosphate buffer maintained at 37° C. was treated with 5 μL of the enzyme to initiate the chemiluminescence. At the point of maximum emission […] of 0.011M solution of either α- or β-naphthyl acetate were added.

[6] = assay type: physicochemical; conditions: 0.002M in 2-methoxyethanol, stored at 0° C.
Protocol: as §2
Stability of Enzyme and Dioxetane to Reaction Conditions. Many dioxetanes are known to be destroyed via a non-luminescent pathway by acid catalyzed processes in protic solvents. Similarly, amines are also known to cause the catalytic destruction of dioxetanes via an electron-transfer process. […]

[7] = target: T1, Acetylcholinesterase from human erythrocytes (Homo sapiens, UniProt P22303); test: Enzymatic triggering of chemiluminescence with acetylcholinesterase; assay type: biochemical; conditions: 0.05M phosphate buffer, pH 8.0, 37.0° C.
T1 construct: purchased Sigma Chemical Co. C-3389; host or cells: human erythrocytes
Text: Acetylcholinesterase, an enzyme of considerable biological significance, hydrolyzes acetylcholine to choline and acetic acid under physiological conditions. It was of interest to determine whether this enzyme would also initiate the chemiluminescent decomposition of the acetyl-protected dioxetane 2e by removal of the acetyl group. Acetylcholinesterase (C-3389) from human erythrocytes was purchased from Sigma Chemical Co. as a lyophilized powder containing phosphate buffer salts. […]. Addition of more dioxetane during this period generated more light.

[8] = system: alkaline phosphatase from Bovine Intestinal Mucosa; test: Enzymatic triggering of chemiluminescence with alkaline phosphatase (Type VII-S); assay type: biochemical; conditions: 2-amino-2-methyl-1-propanol buffer pH 10.3, 1.5M, 37° C., 10 μL enzyme suspension
Protocol: A cuvette containing 3 mL of a buffer solution of 2-amino-2-methyl-l-propanol (Sigma Chemical Co., pH=10.3, 1.5M) was placed in the black box at 37° C. A portion (200 μL) of the dioxetane stock solution (6d in CH2 Cl2) was added to this buffer solution. Subsequent addition of 10 μL of an alkaline phosphatase suspension [Sigma, Type VII-S from Bovine Intestinal Mucosa, suspension in 3.2M (NH4)2 SO4 ] gave rise to chemiluminescence over a period of approximately 2-3 min indicating the enzymatic triggering of the dioxetane.

[9] = 25° C.; cited from earlier work
[10] = 1 μL (0.26 units) aryl esterase, pH 7.6 Tris buffer, 25° C.

T1 sequence (P22303 other isoform, or with tags, fused parts or gaps): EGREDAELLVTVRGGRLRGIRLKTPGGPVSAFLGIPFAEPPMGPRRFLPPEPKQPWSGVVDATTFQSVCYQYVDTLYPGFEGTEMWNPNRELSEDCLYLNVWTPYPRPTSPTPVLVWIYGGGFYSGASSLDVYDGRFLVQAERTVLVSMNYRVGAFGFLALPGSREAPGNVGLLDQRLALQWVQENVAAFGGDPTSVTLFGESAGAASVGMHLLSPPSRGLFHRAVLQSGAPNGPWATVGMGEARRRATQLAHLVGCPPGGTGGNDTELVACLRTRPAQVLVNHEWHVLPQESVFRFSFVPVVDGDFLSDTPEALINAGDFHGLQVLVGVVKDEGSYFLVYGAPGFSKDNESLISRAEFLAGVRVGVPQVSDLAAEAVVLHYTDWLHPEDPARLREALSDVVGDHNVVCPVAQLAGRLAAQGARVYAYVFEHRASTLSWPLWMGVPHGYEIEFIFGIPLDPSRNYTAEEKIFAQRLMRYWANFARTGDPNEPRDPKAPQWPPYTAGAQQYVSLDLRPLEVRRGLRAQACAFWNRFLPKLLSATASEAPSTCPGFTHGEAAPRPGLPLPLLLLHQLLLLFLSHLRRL

COC1(c2ccc3cc(O)ccc3c2)OOC12C1CC3CC(C1)CC2C3 (stereo not shown) [Dioxetane 2b, 4-(6-Hydroxy-2-naphthyl)-4-methoxyspiro[1,2-dioxetane-3,2'-adamantane]]
base-induced chemiluminescence [1]: intense blue chemiluminescence
base-induced chemiluminescence with other bases ([1]; methanol with KOH as base, or o-xylene with n-BuLi as base): bright blue chemiluminescence with similar decay rates

COC1(c2ccc3cc(O[Si](C)(C)C(C)(C)C)ccc3c2)OOC12C1CC3CC(C1)CC2C3 (stereo not shown) [Dioxetane 2c]
Ea (activation energy for decomposition) ([2]; decomposition in xylene): 27.0
half-life of chemiluminescence decay, fluoride ion induced ([3]; 10^-4 M dioxetane, 0.01M tetrabutylammonium fluoride in 2-methoxyethanol, room temperature, pseudo-first order, 100 µM): about 20 minutes
fluoride induced chemiluminescence ([3]; tetrabutylammonium fluoride in 2-methoxyethanol): Blue chemiluminescence was produced

COC1(c2ccc3cc(O[Si](c4ccccc4)(c4ccccc4)C(C)(C)C)ccc3c2)OOC12C1CC3CC(C1)CC2C3 (stereo not shown) [Dioxetane 2d]
fluoride induced chemiluminescence in polar aprotic solvents [3]: bright chemiluminescence
triggering properties [4]: triggering properties similar to dioxetanes 2a-c and 2e

COC1(c2ccc3cc(OC(C)=O)ccc3c2)OOC12C1CC3CC(C1)CC2C3 (stereo not shown) [Dioxetane 2e, 4-(6-Acetoxy-2-naphthyl)-4-methoxyspiro[1,2-dioxetane-3,2'-adamantane]]
duration of thermal chemiluminescence ([2]; aliquot injected into 3 mL of o-xylene at 95° C.): persisted for several hours
period over which chemiluminescence decayed [5, 10]: 30 min
time at which chemiluminescence intensity reached a maximum [5, 10]: about 3 minutes
maximum light intensity IMAX versus temperature ([5]; 1 μL enzyme in Tris buffer at 25, 37 and 50° C.): increased with increasing temperature
chemiluminescence with enzyme medium only ([5]; 3 mL Tris buffer containing 5 μL of 3 M (NH4)2SO4, no enzyme, 25° C.): produced no chemiluminescence
chemiluminescence signal without enzyme ([5]; 150 μL (0.3 μmol) dioxetane stock in 3.0 mL pH 7.6 Tris buffer, 25° C., before enzyme): no chemiluminescence signal was detected
chemiluminescence with denatured enzyme ([5]; enzyme heated to 90° C. in Tris buffer and cooled to 25° C.): resulted in no chemiluminescence
stability of stock solution on storage [6]: stable indefinitely
duration of light emission [7]: 20 s

Oc1ccc2c(c1)C1(OOC13C1CC4CC(C1)CC3C4)c1ccccc1-2 (stereo not shown) [Dioxetane 4a]
base-induced chemiluminescence [1]: produced chemiluminescence at room temperature
triggering properties [4]: triggering properties similar to dioxetanes 2a-c and 2e

CC(C)(C)[Si](C)(C)Oc1ccc2c(c1)C1(OOC13C1CC4CC(C1)CC3C4)c1ccccc1-2 (stereo not shown) [Dioxetane 4b, Dispiro[adamantane-2,3'-[1,2]dioxetane-4',9"-(2-tert-butyldimethylsilyloxy-9-fluorene)]]
fluoride induced chemiluminescence in polar aprotic solvents [3]: bright chemiluminescence

Oc1ccc2c(c1)Oc1ccccc1C21OOC12C1CC3CC(C1)CC2C3 (stereo not shown) [Dioxetane 6a]
base-induced chemiluminescence [1]: produced chemiluminescence at room temperature
triggering properties [4]: triggering properties similar to dioxetanes 2a-c and 2e

CC(C)(C)[Si](C)(C)Oc1ccc2c(c1)Oc1ccccc1C21OOC12C1CC3CC(C1)CC2C3 (stereo not shown) [Dioxetane 6b]
fluoride induced chemiluminescence in polar aprotic solvents [3]: bright chemiluminescence
triggering properties [4]: triggering properties similar to dioxetanes 2a-c and 2e

CC(=O)Oc1ccc2c(c1)Oc1ccccc1C21OOC12C1CC3CC(C1)CC2C3 (stereo not shown) [Dioxetane 6c]
triggering properties [4]: triggering properties similar to dioxetanes 2a-c and 2e

O=P(O)(O)Oc1ccc2c(c1)Oc1ccccc1C21OOC12C1CC3CC(C1)CC2C3 (stereo not shown) [Dioxetane 6d, Dispiro[adamantane-2,3'-[1,2]dioxetane-4',9"-(3-phosphate-9H-xanthene]]
period of chemiluminescence after enzyme addition [8]: 2 to 3 min

COC1(c2cccc(O)c2)OOC12C1CC3CC(C1)CC2C3 (stereo not shown) [Dioxetane 8a]
base-induced chemiluminescence [1]: produced chemiluminescence at room temperature

COC1(c2cccc(O[Si](C)(C)C(C)(C)C)c2)OOC12C1CC3CC(C1)CC2C3 (stereo not shown) [Dioxetane 8b, 4-(3-tert-Butyldimethylsilyloxyphenyl)-4-methoxyspiro[1,2-dioxetane-3,2'-adamantane]]
fluoride induced chemiluminescence in polar aprotic solvents [3]: bright chemiluminescence

Oc1ccc(C23OCCOC2(c2ccccc2)OO3)cc1 (stereo not shown) [deprotonated dioxetane (X=O^-)]
decomposition rate relative to protonated form (X=OH) [9]: 5.7×10^6 times faster

CCCCCCCCCCCCOS(=O)(=O)[O-].[Na+] [sodium lauryl sulfate (SDS), sodium lauryl sulfate, reference compound]
effect of enzyme inhibitor on light emission ([5]; added at maximum emission of 2e, Tris buffer, 1.5 μL enzyme): irreversible decrease in the intensity

CC(=O)Oc1cccc2ccccc12 [α-naphthyl acetate, reference compound]
effect of added competing esterase substrate on light intensity [5]: rapid decrease in light intensity

CC(=O)Oc1ccc2ccccc2c1 [β-naphthyl acetate, reference compound]
effect of added competing esterase substrate on light intensity [5]: rapid decrease in light intensity
